Results published in patent US7786097B2, “Tricyclic compounds, compositions and methods” (Pfizer Inc., priority 2007, dated 2010).
Counter-ions that a name gives are not always drawn. Like-named read-outs stand apart in the source and are kept apart here.

Experiments:
[1] = molecular target: T1, full-length glucocorticoid (GR) protein (Homo sapiens, UniProt P04150); assay: Glucocorticoid receptor fluorescence polarization ligand binding (GRFP) assay
T1 construct: purchased Invitrogen
T1 sequence (P04150 1-777): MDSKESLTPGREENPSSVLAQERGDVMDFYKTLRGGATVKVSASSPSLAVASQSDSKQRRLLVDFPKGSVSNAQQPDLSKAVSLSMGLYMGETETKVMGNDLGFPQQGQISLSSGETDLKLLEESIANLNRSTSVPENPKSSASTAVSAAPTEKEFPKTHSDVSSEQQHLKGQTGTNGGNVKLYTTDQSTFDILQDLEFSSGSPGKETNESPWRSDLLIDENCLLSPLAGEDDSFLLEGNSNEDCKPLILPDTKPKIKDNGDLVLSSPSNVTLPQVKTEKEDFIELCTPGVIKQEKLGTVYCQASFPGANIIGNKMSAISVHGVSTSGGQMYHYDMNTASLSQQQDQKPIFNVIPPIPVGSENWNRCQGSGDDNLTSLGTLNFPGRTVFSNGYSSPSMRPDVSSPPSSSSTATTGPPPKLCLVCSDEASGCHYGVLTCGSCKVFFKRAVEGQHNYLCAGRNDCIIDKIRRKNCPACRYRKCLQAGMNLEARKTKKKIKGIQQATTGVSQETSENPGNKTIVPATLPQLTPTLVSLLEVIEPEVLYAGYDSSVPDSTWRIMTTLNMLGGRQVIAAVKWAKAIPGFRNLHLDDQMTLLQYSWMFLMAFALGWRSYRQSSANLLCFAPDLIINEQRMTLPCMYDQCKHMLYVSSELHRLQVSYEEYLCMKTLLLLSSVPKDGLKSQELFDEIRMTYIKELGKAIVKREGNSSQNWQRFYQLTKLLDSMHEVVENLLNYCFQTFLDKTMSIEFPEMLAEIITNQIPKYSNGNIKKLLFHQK
Excerpt: GRFP: Glucocorticoid Receptor Binding
The glucocorticoid receptor fluorescence polarization ligand binding (GRFP) assay is used to evaluate direct binding of testing compounds to full-length glucocorticoid (GR) protein. Reagents for this assay are purchased from Invitrogen in a test kit. A fluorescent labeled GR ligand is used as a fluorescent tracer and test compounds compete with the fluorescent tracer for GR binding. The change in polarization value in the presence of test compounds is due to binding of test compounds to (GR) and is used to determine IC50 and relative binding affinity of test compounds for GR.

[2] = system: Mouse Collagen-Induced Arthritis (mCIA); assay: Therapeutic mouse collagen-induced arthritis (mCIA) model; type: in vivo, Male DBA/J mice; conditions: Mus musculus, mice, dosing day 34 through day 49; for ED80: read-out: Therapeutic mCIA (ED80 dose)
Excerpt: Mouse Collagen-induced arthritis is a commonly used chronic, preclinical model of rheumatoid arthritis in which joint swelling and bone destruction occur following immunization with type II collagen. Reduction of disease incidence and severity has been shown previously to be predictive of disease-modification and signs and symptoms mitigation, respectively, in a clinical setting.
In the therapeutic mCIA model, induction of disease incidence and severity was synchronized via LPS stimulation. Male DBA/J mice were immunized with 100 ug of bovine type II collagen (bCII) on day 0. All mice received an intraperitoneal injection of 20 μg of LPS on day 28 and disease was allowed to develop through day 34. At day 34, all mice had disease (incidence=100%) with an average severity score of seven. Dosing of compounds was initiated in the therapeutic mode on day 34 and continued through day 49. Different treatments were compared by measuring the decrease in incidence (i.e., resolution of disease) and the decrease in severity of paw swelling over time.

LPS-induced serum TNFα = LPS-induced serum TNFα suppression, 28-day repeat dose mouse model; type: in vivo, Swiss Webster female mice; conditions: Mus musculus, 672 h, mice, oral gavage 28 days
Description: (§1) The compounds were weighed and suspended in a vehicle of 0.5% methylcellulose/0.025% tween 20 (Sigma-Aldrich, St. Louis, Mo.). Compound suspensions were homogenized using a Polytron PT-3100 tissue homogenizer to create a very fine suspension and were then sonicated for 10 minutes using a water bath sonicator. Aliquots of each suspension were made for daily dosing at 0.2 ml/dose. Swiss Webster female mice, 10-12 weeks old, 28-29 grams, (Taconic, Germantown, N.Y.) were used in accordance with the guidelines of the Institutional Animal Care and Use Committee and in accordance with NIH guidelines on laboratory animal welfare. Mice were acclimated in the Pfizer animal facility for three to seven days prior to being utilized in a study. […] Each treatment group contained 5-10 mice. To establish a dosing regimen for the studies, a pilot pharmacodynamic time course experiment was conducted to quantify TNFα repression after a single ED80 dose.
(§2) Body weights were measured on the first and last day of each experiment. Blood samples were obtained after three weeks of dosing for a steady-state pharmacokinetic (PK) analysis. To assess compound effects on LPS-induced TNFα, all mice received an intraperitoneal injection of LPS (Salmonella typhosa, L-7895; Sigma-Aldrich, St. Louis) 2.5 hr after the last dose on day 28. Mice were sacrificed 90 minutes after LPS administration. Serum samples were quantified for osteocalcin and TNFα using the multiplex assays (Linco Research, Inc, St. Charles, Mo.; Luminex 100, Austin, Tex.). Samples were diluted 1:20 and the assay was run according to manufacturer's instructions. The osteocalcin standard was purchased separately (Biomedical Technologies Inc., Stoughton, Mass.). Mice were fasted for 4 hours before serum was collected for TNFα, and osteocalcin levels. For each experiment, outliers were detected by calculating the number of standard deviations from the mean of the group. If the value being examined was more than 2.5 standard deviations from the mean, it was excluded from the rest of the calculations.
(§3) The individual mouse percent inhibition values were fit to a four-parameter logistic model using the dose mean for each group.
(§4) ED50 and ED80 values were obtained for the various endpoints using a four-parameter logistic fit. For compounds which were tested multiple times, ED50 and ED80 values were obtained using four-parameter logistic fits of the combined data from multiple experiments.

Serum osteocalcin = Serum osteocalcin suppression, 28-day repeat dose mouse model; type: in vivo, Swiss Webster female mice; conditions: mice, oral gavage 28 days, serum osteocalcin
Description: as §1, §2, §3, §4

[3] = system: IL-6 levels in Human A549 lung epithelial cells; assay: IL-1β-stimulated IL-6 in A549 cells; type: cell-based; conditions: additional results (footnote a)
Description: IL-6 IC50 and % Inhibition
Human A549 lung epithelial cells (American Type Culture Collection, Rockville, Md.) were cultured in Kaighn's F-12K medium with penicillin-streptomycin (10 U/mL) and 10% heat-inactivated fetal bovine serum (all from Invitrogen, Grand Island, N.Y.). A549 cells were plated at a density of 30,000 cells/well in 96-well plates and incubated overnight at 37° C. and with 5% CO2. The cells were serum-starved by replacing the growth medium with serum-free Kaighn's F-12K medium with penicillin-streptomycin (10 U/mL) and, again, incubating overnight at 37° C. and with 5% CO2. On the third day, the medium was replaced with fresh serum-free medium and the cells were incubated with or without compound (vehicle was DMSO at 0.1% maximum concentration) for approximately 1 hour and then stimulated with 1 ng/mL recombinant human IL-1β (R&D Systems, Minneapolis, Minn.) for 20 hours at 37° C. and with 5% CO2. Cell supernatants were collected for determination of IL-6 levels using MSD (Meso Scale Discovery, Gaithersburg, Md.) 96-well Single Spot plates as per the manufacturer's instructions. Plates were read with an MSD Sector Imager 6000. […] Vehicle was used to define the 0% inhibition control. Percent inhibition for each compound concentration, relative to these controls, was calculated using Excel (Microsoft, Redmond, Wash.). […]

[4] = Solubility and intrinsic dissolution; type: physicochemical; conditions: compared with Example 1

SMILES | IC50 [1] [nM] | ED80 [2] [mg/kg] | ED80 (LPS-induced serum TNFα) [mg/kg] | Osteocalcin Suppression (ED80 dose) (Serum osteocalcin) [mg/kg] | ED50 ([2]; read-out: Therapeutic mCIA (ED50 dose)) [mg/kg] | IC50 ([1]; additional results (footnote a)) [nM] | IL-6 % Inhibition [3] [%] | solubility and intrinsic dissolution [4]
Cc1ncccc1CNC(=O)c1ccc2c(c1)CC[C@@H]1C[C@@](O)(CCC(F)(F)F)CC[C@@]21Cc1ccccc1 [Comparator A, (4βS,7S,8αR)-4β-benzyl-7-hydroxy-N-((2-methylpyridin-3-yl)methyl)-7-(3,3,3-trifluoropropyl)-4β,5,6,7,8,8α,9,10-octahydrophenanthrene-2-carboxamide] | 7.1 | – | – | – | – | – | – | –
Cc1cnc(NC(=O)c2ccc3c(c2)CC[C@@H]2C[C@@](O)(C(F)(F)F)CC[C@@]32Cc2ccccc2)c(C)n1 [Comparator B, (4βS,7R,8αR)-4β-benzyl-N-(3,5-dimethylpyrazin-2-yl)-7-hydroxy-7-(trifluoromethyl)-4β,5,6,7,8,8α,9,10-octahydrophenanthrene-2-carboxamide] | 0.35 | > 10 | 2.91 | >10 | – | – | – | –
Cc1ncccc1NC(=O)c1ccc2c(c1)CC[C@@H]1C[C@@](O)(CCC(F)(F)F)CC[C@@]21Cc1ccccc1 [Comparator C, (4βS,7S,8αR)-4β-benzyl-7-hydroxy-N-(2-methylpyridin-3-yl)-7-(3,3,3-trifluoropropyl)-4β,5,6,7,8,8α,9,10-octahydrophenanthrene-2-carboxamide] | 1.22 | > 10 | 1.33 | – | – | – | – | –
Cc1ccncc1NC(=O)c1ccc2c(c1)CC[C@@H]1C[C@@](O)(C(F)(F)F)CC[C@@]21Cc1ccccc1 [Comparator D, (4βS,7R,8αR)-4β-benzyl-7-hydroxy-N-(4-methylpyridin-3-yl)-7-(trifluoromethyl)-4β,5,5,7,8,8α,9,10-octahydrophenanthrene-2-carboxamide] | 2.06 | – | > 20 | – | – | – | – | –
Cc1ncccc1NC(=O)c1ccc2c(c1)C(=O)C[C@@H]1C[C@@](O)(C(F)(F)F)CC[C@@]21Cc1ccccc1 [Comparator E] | 1.18 | 2.6 | 1.18 | 1.71 | – | – | – | –
Cc1ncccc1NC(=O)c1ccc2c(c1)[C@H](O)C[C@@H]1C[C@@](O)(C(F)(F)F)CC[C@@]21Cc1ccccc1 [Comparator F, (4βS,7R,8αR,10R)-4β-benzyl-7,10-dihydroxy-N-(2-methylpyridin-3-yl)-7-(trifluoromethyl)-4β,5,6,7,8,8α,9,10-octahydrophenanthrene-2-carboxamide] | 1.9 | > 10 | 5.67 | >10 | – | – | – | –
Cc1c(NC(=O)c2ccc3c(c2)CC[C@@H]2C[C@@](O)(C(F)(F)F)CC[C@@]32Cc2ccccc2)ccc[n+]1[O-] [Comparator G] | – | 3 | 3.33 | 7.27 | 0.6 | – | – | –
Cc1ncccc1NC(=O)c1ccc2c(c1)CC[C@@H]1C[C@@](O)(C(F)F)CC[C@@]21Cc1ccccc1 [Comparator H, (4βS,7R,8αR)-4-benzyl-7-(difluoromethyl)-7-hydroxy-N-(2-methylpyridin-3-yl)-4β,5,6,7,8,8α,9,10 octahydrophenanthrene-2-carboxamide] | 8.03 | – | 0.72 | – | – | – | – | –
Cc1ncccc1NC(=O)c1ccc2c(c1)C=C[C@@H]1C[C@@](O)(C(F)(F)F)CC[C@@]21Cc1ccccc1 [Comparator I, (4βS,7R,8αR)-4β-benzyl-7-hydroxy-N-(2-methylpyridin-3-yl)-7-(trifluoromethyl)-4β,5,6,7,8,8α-hexahydrophenanthrene-2-carboxamide] | 9.12 | > 20 | 5.45 | >20 | – | – | – | –
Cc1ncc(NC(=O)c2ccc3c(c2)CC[C@@H]2C[C@@](O)(CCC(F)(F)F)CC[C@@]32Cc2ccccc2)c(C)n1 [Comparator J] | 4.58 | > 20 | 0.79 | – | – | – | – | –
Cc1ncccc1NC(=O)c1ccc2c(c1)CC[C@@H]1C[C@@](OC(=O)OCC(C)C)(C(F)(F)F)CC[C@@]21Cc1ccccc1 [Comparator K, (2R,4αS,10αR)-4-benzyl-7-((2-methylpyridin-3-yl)carbamoyl)-2-(trifluoromethyl)-1,2,3,4,4α,9,10,10α-octahydrophenanthren-2-yl isobutyl carbonate] | 895 | – | – | – | – | – | – | –
Cc1ncccc1NC(=O)c1ccc2c(c1)CC[C@@H]1C[C@@](O)(C(F)(F)F)CC[C@@]21Cc1ccccc1 [Example 1 HCL salt] | 1.31 | – | – | – | – | – | – | –
Cc1ncccc1NC(=O)c1ccc2c(c1)CC[C@@H]1C[C@@](OP(=O)(O)O)(C(F)(F)F)CC[C@@]21Cc1ccccc1 [Example 2, (2R,4αS,10αR)-4α-benzyl-7-((2-methylpyridin-3-yl)carbamoyl)-2-(trifluoromethyl)-1,2,3,4,4α,9,10,10α-octahydrophenanthren-2-yl dihydrogen phosphate] | 79 | – | – | – | – | 42 | 80 | enhanced solubility and intrinsic dissolution
